According to paper PMC8406319, “The dCache Chemoreceptor TlpA of Helicobacter pylori Binds Multiple Attractant and Antagonistic Ligands via Distinct Sites” (mBio, 2021):
Where a name gives a salt, the structure may show the parent alone.

Test system: H. pylori PMSS1 WT
Assay: Ligand competition tracking (chemotaxis) assay
Type: cell-based, Helicobacter pylori
Settings: 10 mM each; added before or after the chemoattractant
Method: Consequently, we tested whether glucosamine affected H. pylori chemotaxis by developing a ligand competition tracking assay between non-chemotaxis-active and chemotaxis-active TlpA ligands. This assay is a modified version of our live-cell video microscopy assay where the addition of a chemotaxis-active ligand is followed by the addition of a non-chemotaxis-active ligand 10 s later and vice versa. […] This response was decreased regardless of whether glucosamine was added before or after the addition of the chemoattractant.
FIG 7 Ligand competition tracking experiment between chemoactive and nonchemoactive TlpA ligands. Cultures of the H. pylori PMSS1 WT were grown in BB10 overnight and then back-diluted as described in the legend of Fig. 1. Cultures were mock treated or treated with various concentrations of compounds as indicated. The pH of the cysteine stock was adjusted using NaOH to match the pH of the water used for the untreated control. The cells were immediately filmed, and direction changes were counted over a 3-s swimming period in at least 100 cells per treatment from 3 biological replicates. Repellents increase direction changes, as exemplified by the control repellent HCl, while attractants decrease direction changes, as exemplified by the control attractant dipyridyl. Data are normalized to the values for the untreated control for each strain, as described in Materials and Methods. […]
Swimming behavior assays were done with H. pylori PMSS1 strains grown in BB10 as described above. […] The pH of BB10 upon treatment was independently assessed using a Denver Instruments pH meter. […] For each sample, >100 3-s-long bacterial tracks from three independent cultures were analyzed manually to identify stops followed by direction changes. Data for all biological replicates under each condition were combined, and the average number of direction changes in 3 s and the standard error of the mean were calculated. […]

**Q.** Which results are given for N[C@H]1C(O)O[C@H](CO)[C@@H](O)[C@@H]1O (stereo partly drawn) [Glucosamine, D(+)-glucosamine hydrochloride]?
**A.** Effect on chemoattractant response to arginine: prevented the chemoattractant response; Effect on chemoattractant response to cysteine: severely blunted the response; Effect on chemoattractant response to fumarate: prevented the chemoattractant response
